These results are taken from US20140155376A1, “PYRROLOPYRAZINE KINASE INHIBITORS” (Hoffmann-La Roche Inc., priority 2010, published 2014).

The target in the assay is T1, JAK3 (recombinant human kinase domain; h-jak3(810-1124)) (Homo sapiens, UniProt P52333).
T1 construct: h-jak3(810- 1124)-sf9-c; made in house; host or cells: Sf9 insect cells
Description: Determination of IC50 of Janus Kinase (JAK) inhibition: JAK3, radioactive end-point assay with 33P-ATP. The format is biochemical. The settings on record: JAK3 kinase domain; ATP 1.5 uM, peptide 50 uM, 20 minutes, room temperature, 10% DMSO; read-out: Ic50 h-jak3(810-1124)-sf9-c:no additive.

Usually IC50 stands for the concentration at which inhibition is half-maximal.

T1 sequence (P52333 810-1124): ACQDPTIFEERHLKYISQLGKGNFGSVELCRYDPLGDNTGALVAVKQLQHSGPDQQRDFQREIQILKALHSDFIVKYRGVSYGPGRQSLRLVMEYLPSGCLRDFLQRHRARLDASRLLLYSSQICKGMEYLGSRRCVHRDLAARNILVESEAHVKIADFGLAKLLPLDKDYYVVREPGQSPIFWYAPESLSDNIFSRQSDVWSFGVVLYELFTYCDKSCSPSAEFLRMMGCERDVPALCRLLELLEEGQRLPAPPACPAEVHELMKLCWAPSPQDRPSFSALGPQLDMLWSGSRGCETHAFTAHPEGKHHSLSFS

On to `C[C@H](NC(=O)c1c[nH]c2ncc(-c3ccc(C(F)(F)F)cc3)nc12)C(C)(C)C` [Example I-143, 2-(4-Trifluoromethyl-phenyl)-5H-pyrrolo[2,3-b]pyrazine-7-carboxylic acid ((S)-1,2,2-trimethyl-propyl)-amide], for which the IC50 is 6.28 nM. The same measure for `C[C@H](NC(=O)c1c[nH]c2ncc(C3CC3)nc12)C(C)(C)CS(C)(=O)=O` [Example I-144, 2-Cyclopropyl-5H-pyrrolo[2,3-b]pyrazine-7-carboxylic acid ((S)-3-methanesulfonyl-1,2,2-trimethyl-propyl)-amide]: 3.4 nM; for `C[C@H](NC(=O)c1c[nH]c2ncc(-c3cn(-c4cccc(Cl)c4)cn3)nc12)C(C)(C)C` [Example I-145, 2-[1-(3-Chloro-phenyl)-1H-imidazol-4-yl]-5H-pyrrolo[2,3-b]pyrazine-7-carboxylic acid ((S)-1,2,2-trimethyl-propyl)-amide]: 4.61 nM. As for `C[C@H](NC(=O)c1c[nH]c2ncc(-c3cn(-c4cccc(C(F)(F)F)c4)cn3)nc12)C(C)(C)C` [Example I-146, 2-[1-(3-Trifluoromethyl-phenyl)-1H-imidazol-4-yl]-5H-pyrrolo[2,3-b]pyrazine-7-carboxylic acid ((S)-1,2,2-trimethyl-propyl)-amide], the IC50 is 13.1 nM. Regarding `C[C@H](NC(=O)c1c[nH]c2ncc(-c3cn(-c4cc(Cl)ccc4F)cn3)nc12)C(C)(C)C` [Example I-147, 2-[1-(5-Chloro-2-fluoro-phenyl)-1H-imidazol-4-yl]-5H-pyrrolo[2,3-b]pyrazine-7-carboxylic acid ((S)-1,2,2-trimethyl-propyl)-amide], the IC50 is 2.46 nM.

Consider `Cc1ccc(F)c(-n2cnc(-c3cnc4[nH]cc(C(=O)N[C@@H](C)C(C)(C)C)c4n3)c2)c1` [Example I-148, 2-[1-(2-Fluoro-5-methyl-phenyl)-1H-imidazol-4-yl]-5H-pyrrolo[2,3-b]pyrazine-7-carboxylic acid ((S)-1,2,2-trimethyl-propyl)-amide], for which the IC50 is 3.25 nM. The same measure for `C[C@H](NC(=O)c1c[nH]c2ncc(-c3cn(-c4cc(C(F)(F)F)ccc4F)cn3)nc12)C(C)(C)C` [Example I-149, 2-[1-(2-Fluoro-5-trifluoromethyl-phenyl)-1H-imidazol-4-yl]-5H-pyrrolo[2,3-b]pyrazine-7-carboxylic acid ((S)-1,2,2-trimethyl-propyl)-amide]: 2.99 nM; for `Cc1cccc(-n2cnc(-c3cnc4[nH]cc(C(=O)N[C@@H](C)C(C)(C)C)c4n3)c2)c1` [Example I-150, 2-(1-m-Tolyl-1H-imidazol-4-yl)-5H-pyrrolo[2,3-b]pyrazine-7-carboxylic acid ((S)-1,2,2-trimethyl-propyl)-amide]: 5.12 nM. Regarding `CCc1cccc(-n2cnc(-c3cnc4[nH]cc(C(=O)N[C@@H](C)C(C)(C)C)c4n3)c2)c1` [Example I-151, 2-[1-(3-Ethyl-phenyl)-1H-imidazol-4-yl]-5H-pyrrolo[2,3-b]pyrazine-7-carboxylic acid ((S)-1,2,2-trimethyl-propyl)-amide], the IC50 came to 12.4 nM.

As to `CC(C)c1cccc(-n2cnc(-c3cnc4[nH]cc(C(=O)N[C@@H](C)C(C)(C)C)c4n3)c2)c1` [Example I-152, 2-[1-(3-Isopropyl-phenyl)-1H-imidazol-4-yl]-5H-pyrrolo[2,3-b]pyrazine-7-carboxylic acid ((S)-1,2,2-trimethyl-propyl)-amide], the IC50 came out at 25.3 nM. The same measure for `C[C@H](NC(=O)c1c[nH]c2ncc(-c3cn(-c4cccc(C(C)(C)C)c4)cn3)nc12)C(C)(C)C` [Example I-153, 2-[1-(3-tert-Butyl-phenyl)-1H-imidazol-4-yl]-5H-pyrrolo[2,3-b]pyrazine-7-carboxylic acid ((S)-1,2,2-trimethyl-propyl)-amide]: 75.4 nM; for `CCNC(=O)c1ccc(-c2cnc3[nH]cc(C(=O)N[C@@H](C)C(C)(C)C)c3n2)s1` [Example I-155, 2-(5-Ethylcarbamoyl-thiophen-2-yl)-5H-pyrrolo[2,3-b]pyrazine-7-carboxylic acid ((S)-1,2,2-trimethyl-propyl)-amide]: 0.32 nM. The same measure for `CC(C)NC(=O)c1ccc(-c2cnc3[nH]cc(C(=O)N[C@@H](C)C(C)(C)C)c3n2)s1` [Example I-156, 2-(5-Isopropyl-carbamoyl-thiophen-2-yl)-5H-pyrrolo[2,3-b]pyrazine-7-carboxylic acid ((S)-1,2,2-trimethyl-propyl)-amide]: 0.35 nM; for `C[C@H](NC(=O)c1c[nH]c2ncc(-c3ccc(C(=O)NC(C)(C)C)s3)nc12)C(C)(C)C` [Example I-157, 2-(5-tert-Butylcarbamoyl-thiophen-2-yl)-5H-pyrrolo[2,3-b]pyrazine-7-carboxylic acid ((S)-1,2,2-trimethyl-propyl)-amide]: 0.43 nM. The same measure for `CC(Cn1cccn1)NC(=O)c1ccc(-c2cnc3[nH]cc(C(=O)N[C@@H](C)C(C)(C)C)c3n2)s1` (stereo partly drawn) [Example I-158, 2-[5-(1-Methyl-2-pyrazol-1-yl-ethylcarbamoyl)-thiophen-2-yl]-5H-pyrrolo[2,3-b]pyrazine-7-carboxylic acid ((S)-1,2,2-trimethyl-propyl)-amide]: 0.32 nM; for `CC(Cc1ccc(F)cc1)NC(=O)c1ccc(-c2cnc3[nH]cc(C(=O)N[C@@H](C)C(C)(C)C)c3n2)s1` (stereo partly drawn) [Example I-159, 2-{5-[2-(4-Fluoro-phenyl)-1-methyl-ethylcarbamoyl]-thiophen-2-yl}-5H-pyrrolo[2,3-b]pyrazine-7-carboxylic acid ((S)-1,2,2-trimethyl-propyl)-amide]: 0.53 nM; for `CCN(CC)C(=O)c1ccc(-c2cnc3[nH]cc(C(=O)N[C@@H](C)C(C)(C)C)c3n2)s1` [Example I-160, 2-(5-Diethylcarbamoyl-thiophen-2-yl)-5H-pyrrolo[2,3-b]pyrazine-7-carboxylic acid ((S)-1,2,2-trimethyl-propyl)-amide]: 0.32 nM. For `C[C@H](NC(=O)c1c[nH]c2ncc(-c3ccc(C(=O)N4CCN(C)CC4)s3)nc12)C(C)(C)C` [Example I-161, 2-[5-(4-Methyl-piperazine-1-carbonyl)-thiophen-2-yl]-5H-pyrrolo[2,3-b]pyrazine-7-carboxylic acid ((S)-1,2,2-trimethyl-propyl)-amide], the IC50 was 0.32 nM. The same measure for `C[C@H](NC(=O)c1c[nH]c2ncc(-c3ccc(C(=O)N[C@H](C)C4CC4)s3)nc12)C(C)(C)C` [Example I-162, 2-[5-((R)-1-Cyclopropyl-ethylcarbamoyl)-thiophen-2-yl]-5H-pyrrolo[2,3-b]pyrazine-7-carboxylic acid ((S)-1,2,2-trimethyl-propyl)-amide]: 0.32 nM; for `C=Cc1cccc(-n2cnc(-c3cnc4[nH]cc(C(=O)N[C@@H](C)C(C)(C)C)c4n3)c2)c1` [Example I-163, 2-[1-(3-Vinyl-phenyl)-1H-imidazol-4-yl]-5H-pyrrolo[2,3-b]pyrazine-7-carboxylic acid ((S)-1,2,2-trimethyl-propyl)-amide]: 3 nM; for `C[C@H](NC(=O)c1c[nH]c2ncc(-c3ccc(C(=O)NCc4cccnc4)s3)nc12)C(C)(C)C` [Example I-164, 2-{5-[(Pyridin-3-ylmethyl)-carbamoyl]-thiophen-2-yl}-5H-pyrrolo[2,3-b]pyrazine-7-carboxylic acid ((S)-1,2,2-trimethyl-propyl)-amide]: 0.32 nM. As for `C[C@H](NC(=O)c1c[nH]c2ncc(-c3ccc(C(=O)NCc4ccncc4)s3)nc12)C(C)(C)C` [Example I-165, 2-{5-[(Pyridin-4-ylmethyl)-carbamoyl]-thiophen-2-yl}-5H-pyrrolo[2,3-b]pyrazine-7-carboxylic acid ((S)-1,2,2-trimethyl-propyl)-amide], the IC50 worked out at 0.17 nM. The same measure for `C[C@H](NC(=O)c1c[nH]c2ncc(-c3ccc(C(=O)NCc4ccccn4)s3)nc12)C(C)(C)C` [Example I-166, 2-{5-[(Pyridin-2-ylmethyl)-carbamoyl]-thiophen-2-yl}-5H-pyrrolo[2,3-b]pyrazine-7-carboxylic acid ((S)-1,2,2-trimethyl-propyl)-amide]: 0.11 nM. The same measure for `C[C@H](NC(=O)c1c[nH]c2ncc(-c3ccc(C(=O)N4CCC(C#N)CC4)s3)nc12)C(C)(C)C` [Example I-167, 2-[5-(4-Cyano-piperidine-1-carbonyl)-thiophen-2-yl]-5H-pyrrolo[2,3-b]pyrazine-7-carboxylic acid ((S)-1,2,2-trimethyl-propyl)-amide]: 0.32 nM; for `C[C@H](NC(=O)c1c[nH]c2ncc(-c3ccc(C(=O)NCC4CCCC4)s3)nc12)C(C)(C)C` [Example I-168, 2-[5-(Cyclo-pentylmethyl-carbamoyl)-thiophen-2-yl]-5H-pyrrolo[2,3-b]pyrazine-7-carboxylic acid ((S)-1,2,2-trimethyl-propyl)-amide]: 0.22 nM. As to `C[C@H](CO)NC(=O)c1ccc(-c2cnc3[nH]cc(C(=O)N[C@@H](C)C(C)(C)C)c3n2)s1` [Example I-169, 2-[5-((R)-2-Hydroxy-1-methyl-ethylcarbamoyl)-thiophen-2-yl]-5H-pyrrolo[2,3-b]pyrazine-7-carboxylic acid ((S)-1,2,2-trimethyl-propyl)-amide], the IC50 came out at 0.29 nM. Consider `C[C@H](Cc1ccccc1)NC(=O)c1ccc(-c2cnc3[nH]cc(C(=O)N[C@@H](C)C(C)(C)C)c3n2)s1` [Example I-170, 2-[5-((R)-1-Methyl-2-phenyl-ethylcarbamoyl)-thiophen-2-yl]-5H-pyrrolo[2,3-b]pyrazine-7-carboxylic acid ((S)-1,2,2-trimethyl-propyl)-amide], for which the IC50 turned out to be 0.58 nM. The same measure for `CC(NC(=O)c1ccc(-c2cnc3[nH]cc(C(=O)N[C@@H](C)C(C)(C)C)c3n2)s1)c1cccnc1` (stereo partly drawn) [Example I-171, 2-[5-(1-Pyridin-3-yl-ethylcarbamoyl)-thiophen-2-yl]-5H-pyrrolo[2,3-b]pyrazine-7-carboxylic acid ((S)-1,2,2-trimethyl-propyl)-amide]: 0.23 nM.
